Results published in article PMC8268887, “Peptide/β-Peptoid Hybrids with Ultrashort PEG-Like Moieties: Effects on Hydrophobicity, Antibacterial Activity and Hemolytic Properties” (International Journal of Molecular Sciences, 2021).
Values after ≈ are worked out from the molar mass of the structure shown.

Experiments:
[1] = system: P. aeruginosa NMI 7197/19; assay type: cell-based, Pseudomonas aeruginosa; settings: NMI 7197/19, 20 h
Outline: (§1)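 Compounds dissolved in water were diluted into 0.01% acetic acid with 0.2% BSA (final) and added to bacterial suspensions (~5 × 10^5 CFU/mL) in cation-adjusted Mueller-Hinton broth (Mg^2+, Ca^2+ 4 mg/L each). Plates were then shaken at 180 rpm for 20 h at 35 °C (±2 °C) before reading MICs.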

P. aeruginosa PAO1 = assay type: cell-based, Pseudomonas aeruginosa; settings: PAO1, 20 h
Outline: as §1

A. baumannii ATCC 19606 = assay type: cell-based, Acinetobacter baumannii; settings: ATCC 19606, 20 h
Outline: as §1

A. baumannii NMI 3658/17 = assay type: cell-based, Acinetobacter baumannii; settings: NMI 3658/17, 20 h
Outline: as §1

[2] = Determination of hemolytic activity; assay type: cell-based; settings: red blood cell suspension in PBS buffer, human red blood cells at 400 µg/mL, 37 °C
Outline: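 Fresh human RBCs, PBS-washed, used as 1% suspension with compound at 400 μg/mL final for 60 min at 37 °C with mild agitation, triplicate wells. Released hemoglobin read at OD 405 nm in supernatant; % hemolysis normalized to 1% SDS (100%) and PBS (0%), averages reported.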

[3] = Antiproliferative activity on HepG2 cell line (MTT assay); assay type: cell-based; settings: HepG2 cells; at 1280 µg/mL, value in parenthesis; read-out: HepG2 cell viability at highest concentration tested
Description: (§2) Effect of compounds on mammalian cell viability was estimated on the HepG2 cell line ATCC HB-8065. In brief, HepG2 cells were seeded into flat-bottomed 96-well plates at a concentration of 5000 cells per well. Subsequently, the cells were incubated for 24 h in a humidified incubator (5% CO2, 37 °C). Then, the medium was removed, and the cells were incubated for 48 h in a humidified incubator (5% CO2, 37 °C) with peptidomimetics in serial dilutions. Then, an 3-(4,5-dimethylthiazol-2-yl)-2,5-diphenyltetrazolium bromide (MTT) assay was performed as previously described. In brief, after incubation with the test compounds, the culture medium was removed, and then fresh medium with 0.2 mg/mL MTT was added into each well of the plate. The cells were then incubated (3 h, 37 °C, 5% CO2), followed by removal of the medium with MTT and addition of 200 μL dimethyl sulfoxide at once to each sample. Absorbance of MTT was measured using the spectrophotometer TECAN Infinite M1000 at 540 nm. The relative viability was calculated by using the formula: ODtreated cells × 100/ODcontrol cells. The IC50 values are calculated by using the program Graph Pad Prism® 5.0. For all compounds, the test range was 10–1280 μg/mL.

[4] = system: HepG2 cell line ATCC HB-8065; test: as above; assay type: cell-based; settings: inhibition of growth of HepG2 cells, 48 h, MTT; highest concentration tested 1280 µg/mL
Description: as §2

| Structure (SMILES) | MIC, P. aeruginosa NMI 7197/19 [1] | MIC, PA (P. aeruginosa PAO1) | MIC against A. baumannii (A. baumannii ATCC 19606) | MIC, AB (A. baumannii ATCC 19606) | MIC, A. baumannii NMI 3658/17 (A. baumannii NMI 3658/17) | HepG2 IC50 [4] | hemolysis at 60 min [2] | viability at 48 h [3] |
| --- | --- | --- | --- | --- | --- | --- | --- | --- |
| NCCCC[C@H](NC(=O)CCN(Cc1ccc(F)cc1)C(=O)[C@H](CCCCN)NC(=O)CCN(Cc1ccc(F)cc1)C(=O)[C@H](CCCCN)NC(=O)CCOCCOCCOCCOCCOCCOCCNC(=O)CCN(Cc1ccc(F)cc1)C(=O)[C@H](CCCCN)NC(=O)CCN(Cc1ccc(F)cc1)C(=O)[C@H](CCCCN)NC(=O)CCN(Cc1ccc(F)cc1)C(=O)[C@@H](N)CCCCN)C(=O)N(CCC(N)=O)Cc1ccc(F)cc1 [Compound 10, H-[X]3-sPEG6-[X]3-NH2] | >64 µg/mL | 16 µg/mL (≈ 7.28 µM) | 1.3 µM (≈ 2.86 µg/mL) | 4 µg/mL (≈ 1.82 µM) | 4 µg/mL (≈ 1.82 µM) | 800 µg/mL | 6.3% | 27% |
| NCCCC[C@H](NC(=O)CCN(Cc1ccc(F)cc1)C(=O)[C@H](CCCCN)NC(=O)CCN(Cc1ccc(F)cc1)C(=O)[C@H](CCCCN)NC(=O)CCOCCOCCOCCOCCNC(=O)CCN(Cc1ccc(F)cc1)C(=O)[C@H](CCCCN)NC(=O)CCN(Cc1ccc(F)cc1)C(=O)[C@H](CCCCN)NC(=O)CCN(Cc1ccc(F)cc1)C(=O)[C@@H](N)CCCCN)C(=O)N(CCC(N)=O)Cc1ccc(F)cc1 [Compound 9, H-[X]3-sPEG4-[X]3-NH2] | >64 µg/mL | 32 µg/mL (≈ 15.2 µM) | – | 4 to 8 µg/mL | 4 to 8 µg/mL | 693 µg/mL | 7.1% | 9% |
| NCCCC[C@H](NC(=O)CCN(Cc1ccc(F)cc1)C(=O)[C@H](CCCCN)NC(=O)CCN(Cc1ccc(F)cc1)C(=O)[C@H](CCCCN)NC(=O)COCCN)C(=O)N(CCC(=O)NCCOCC(=O)N[C@@H](CCCCN)C(=O)N(CCC(=O)N[C@@H](CCCCN)C(=O)N(CCC(=O)N[C@@H](CCCCN)C(=O)N(CCC(=O)NCCOCC(N)=O)Cc1ccc(F)cc1)Cc1ccc(F)cc1)Cc1ccc(F)cc1)Cc1ccc(F)cc1 [Compound 11, H-sPEG1-[X]3-sPEG1-[X]3-sPEG1-NH2] | >64 µg/mL | 32 µg/mL (≈ 14.8 µM) | – | 4 to 8 µg/mL | 8 µg/mL (≈ 3.7 µM) | – | 4.6% | – |
| NCCCC[C@H](NC(=O)CCN(Cc1ccc(F)cc1)C(=O)[C@H](CCCCN)NC(=O)CCN(Cc1ccc(F)cc1)C(=O)[C@H](CCCCN)NC(=O)CCN(Cc1ccc(F)cc1)C(=O)[C@H](CCCCN)NC(=O)CCN(Cc1ccc(F)cc1)C(=O)[C@H](CCCCN)NC(=O)CCN(Cc1ccc(F)cc1)C(=O)[C@@H](N)CCCCN)C(=O)N(CCC(N)=O)Cc1ccc(F)cc1 [Compound 1, H-[Lys-βNPhe(4-F)]6-NH2] | >64 µg/mL | 32 to 64 µg/mL | – | 8 to 16 µg/mL | 4 µg/mL (≈ 2.15 µM) | 464 µg/mL | 6.6% | 0% |
| NCCCC[C@H](NC(=O)CCN(Cc1ccc(F)cc1)C(=O)[C@H](CCCCN)NC(=O)CCN(Cc1ccc(F)cc1)C(=O)[C@H](CCCCN)NC(=O)COCCOCCNC(=O)CCN(Cc1ccc(F)cc1)C(=O)[C@H](CCCCN)NC(=O)CCN(Cc1ccc(F)cc1)C(=O)[C@H](CCCCN)NC(=O)CCN(Cc1ccc(F)cc1)C(=O)[C@@H](N)CCCCN)C(=O)N(CCC(N)=O)Cc1ccc(F)cc1 [Compound 7, H-[X]3-sPEG2-[X]3-NH2] | >64 µg/mL | 16 to 32 µg/mL | – | 4 µg/mL (≈ 1.99 µM) | 4 µg/mL (≈ 1.99 µM) | 619 µg/mL | 6.1% | 10% |
| NCCCC[C@H](NC(=O)CCN(Cc1ccc(F)cc1)C(=O)[C@H](CCCCN)NC(=O)CCN(Cc1ccc(F)cc1)C(=O)[C@H](CCCCN)NC(=O)COCCOCCN)C(=O)N(CCC(=O)NCCOCCOCC(=O)N[C@@H](CCCCN)C(=O)N(CCC(=O)N[C@@H](CCCCN)C(=O)N(CCC(=O)N[C@@H](CCCCN)C(=O)N(CCC(=O)NCCOCCOCC(N)=O)Cc1ccc(F)cc1)Cc1ccc(F)cc1)Cc1ccc(F)cc1)Cc1ccc(F)cc1 [Compound 12, H-sPEG2-[X]3-sPEG2-[X]3-sPEG2-NH2] | >64 µg/mL | 16 to 64 µg/mL | – | 8 to 16 µg/mL | 16 µg/mL (≈ 6.97 µM) | 332 µg/mL | 8.1% | 34% |

Continued, in another order:

| MIC, P. aeruginosa NMI 7197/19 [1] | MIC, PA (P. aeruginosa PAO1) | MIC against A. baumannii (A. baumannii ATCC 19606) | MIC, AB (A. baumannii ATCC 19606) | MIC, A. baumannii NMI 3658/17 (A. baumannii NMI 3658/17) | HepG2 IC50 [4] | Structure (SMILES) | hemolysis at 60 min [2] | viability at 48 h [3] |
| --- | --- | --- | --- | --- | --- | --- | --- | --- |
| >64 µg/mL | 32 to 64 µg/mL | – | 8 µg/mL (≈ 3.88 µM) | 4 µg/mL (≈ 1.94 µM) | 568 µg/mL | NCCCC[C@H](NC(=O)CCN(Cc1ccc(F)cc1)C(=O)[C@H](CCCCN)NC(=O)COCCNC(=O)CCN(Cc1ccc(F)cc1)C(=O)[C@H](CCCCN)NC(=O)CCN(Cc1ccc(F)cc1)C(=O)[C@H](CCCCN)NC(=O)COCCNC(=O)CCN(Cc1ccc(F)cc1)C(=O)[C@H](CCCCN)NC(=O)CCN(Cc1ccc(F)cc1)C(=O)[C@@H](N)CCCCN)C(=O)N(CCC(N)=O)Cc1ccc(F)cc1 [Compound 15, H-[X]2-sPEG1-[X]2-sPEG1-[X]2-NH2] | 4.8% | 26% |
| >64 µg/mL | >64 µg/mL | – | 16 µg/mL (≈ 6.15 µM) | 32 µg/mL (≈ 12.3 µM) | 450 µg/mL | NCCCC[C@H](NC(=O)CCN(Cc1ccc(F)cc1)C(=O)[C@H](CCCCN)NC(=O)CCN(Cc1ccc(F)cc1)C(=O)[C@H](CCCCN)NC(=O)CCOCCOCCOCCOCCN)C(=O)N(CCC(=O)NCCOCCOCCOCCOCCC(=O)N[C@@H](CCCCN)C(=O)N(CCC(=O)N[C@@H](CCCCN)C(=O)N(CCC(=O)N[C@@H](CCCCN)C(=O)N(CCC(=O)NCCOCCOCCOCCOCCC(N)=O)Cc1ccc(F)cc1)Cc1ccc(F)cc1)Cc1ccc(F)cc1)Cc1ccc(F)cc1 [Compound 14, H-sPEG4-[X]3-sPEG4-[X]3-sPEG4-NH2] | 9% | 44% |
| >64 µg/mL | >64 µg/mL | – | 8 to 16 µg/mL | 16 µg/mL (≈ 6.59 µM) | – | NCCCC[C@H](NC(=O)CCN(Cc1ccc(F)cc1)C(=O)[C@H](CCCCN)NC(=O)CCN(Cc1ccc(F)cc1)C(=O)[C@H](CCCCN)NC(=O)COCCOCCOCCN)C(=O)N(CCC(=O)NCCOCCOCCOCC(=O)N[C@@H](CCCCN)C(=O)N(CCC(=O)N[C@@H](CCCCN)C(=O)N(CCC(=O)N[C@@H](CCCCN)C(=O)N(CCC(=O)NCCOCCOCCOCC(N)=O)Cc1ccc(F)cc1)Cc1ccc(F)cc1)Cc1ccc(F)cc1)Cc1ccc(F)cc1 [Compound 13, H-sPEG3-[X]3-sPEG3-[X]3-sPEG3-NH2] | 7.8% | – |
| >64 µg/mL | 32 to 64 µg/mL | – | 8 µg/mL (≈ 3.72 µM) | 4 µg/mL (≈ 1.86 µM) | 687 µg/mL | NCCCC[C@H](NC(=O)CCN(Cc1ccc(F)cc1)C(=O)[C@H](CCCCN)NC(=O)COCCOCCNC(=O)CCN(Cc1ccc(F)cc1)C(=O)[C@H](CCCCN)NC(=O)CCN(Cc1ccc(F)cc1)C(=O)[C@H](CCCCN)NC(=O)COCCOCCNC(=O)CCN(Cc1ccc(F)cc1)C(=O)[C@H](CCCCN)NC(=O)CCN(Cc1ccc(F)cc1)C(=O)[C@@H](N)CCCCN)C(=O)N(CCC(N)=O)Cc1ccc(F)cc1 [Compound 16, H-[X]2-sPEG2-[X]2-sPEG2-[X]2-NH2] | 5.7% | 27% |
